What all share (assay type): cell-based
Assay [1] deals with NCM-460 normal colon epithelial cells. The experiment in a line: MTS cell viability assay, NCM-460 normal colon epithelial cells. The following applies: for IC50: Homo sapiens, NCM460, NCM-460, 4 h compound incubation, MTS, read-out: IC50 Values, Normal Cells, Colon NCM-460; for Fold Selectivity (NCM-460/DLD1): ratio of IC50 NCM-460 / DLD1. Background: Tetrazolium assays rely on reduction of a dye to a coloured formazan, in cell work by metabolically active cells.

Assay [2] has as its system K-562 human leukemia cells. In words: MTS cell viability assay, K-562 human leukemia cells. Particulars: K562, K-562, 4 h compound incubation, MTS, read-out: IC50 Values, Cancerous Cells, Leukemia K-562.
Assay [3] deals with DU-145 human prostate carcinoma cells. The experiment in a line: MTS cell viability assay, DU-145 human prostate carcinoma cells. The following applies: DU-145, 4 h compound incubation, MTS, read-out: IC50 Values, Cancerous Cells, Prostate DU-145.
Assay [4] deals with PACA-2 human pancreatic carcinoma cells. The experiment in a line: MTS cell viability assay, PACA-2 human pancreatic carcinoma cells. Particulars: PACA-2, 4 h compound incubation, MTS, read-out: IC50 Values, Cancerous Cells, Pancreas PACA-2.
The subject of assay [5] is DLD-1 human colon carcinoma cells. In words: MTS cell viability assay, DLD-1 human colon carcinoma cells. Particulars: DLD-1, 4 h compound incubation, MTS, read-out: IC50 Values, Cancerous Cells, Colon DLD-1.
For assay [6], the system named is A549 human lung carcinoma cells. The experiment in a line: MTS cell viability assay, A549 human lung carcinoma cells. The following applies: A549, 4 h compound incubation, MTS, read-out: IC50 Values, Cancerous Cells, Lung A549.

Bounds are passed on as bounds.

As usually defined, the IC50 is the concentration needed to halve the response being measured.

For `Cn1cnc(S(=O)(=O)N2CCC3(CC2)CSC2=C(O3)c3ccccc3C(=O)C2=O)c1` [Compound 79, 1′-[(1-methyl-1H-imidazol-4-yl)sulfonyl]spiro[naphtho[1,2-b][1,4]oxathiine-2,4′-piperidine]-5,6-dione], the IC50 in assay [1] was 20.5 µM; in assay [2], 5.92 µM; in assay [3] it was 11.9 µM; in assay [4] it was 7.26 µM; in assay [5], 8.26 µM; in assay [6], 23.5 µM. For the same compound, the “Fold Selectivity (NCM-460/DLD1)” value in assay [1] is recorded as 2.5.
Regarding `O=C1C(=O)c2ccccc2C2=C1SCC1(CCN(C(=O)c3cccc(C(F)(F)F)c3)CC1)O2` [Compound 54, 1′-[3-(trifluoromethyl)benzoyl]spiro[naphtho 1,2-b][1,4]oxathiine-2,4′-piperidine-5,6-dione], the IC50 in assay [1] amounted to 11 µM; in assay [2], 1.74 µM; in assay [3], 1.91 µM; in assay [4], 1.33 µM; in assay [5], 1.49 µM; in assay [6], 7.57 µM. Also, the “Fold Selectivity (NCM-460/DLD1)” value in assay [1] worked out at 7.4.
For `Cc1ccc(CN2CCC3(CC2)CSC2=C(O3)c3ccccc3C(=O)C2=O)cc1` [Compound 120, 1′-(4-methylbenzyl)spiro[naphtho[1,2-b][1,4]oxathiine-2,4′-piperidine]-5,6-dione], the IC50 in assay [1] worked out at 10.4 µM; in assay [2], 5.47 µM; in assay [3] it was 9.27 µM; in assay [4], 4.35 µM; in assay [5], 4.23 µM; in assay [6], 9.04 µM. Further, the “Fold Selectivity (NCM-460/DLD1)” value in assay [1] was found to be 2.5.
Take `CCCCCCCCCCN1CCC2(CC1)CSC1=C(O2)c2ccccc2C(=O)C1=O` [Compound 128, 1′-decylspiro[naphtho[1,2-b][1,4]oxathiine-2,4′-piperidine]-5,6-dione]: the IC50 in assay [1] is 40.8 µM; in assay [2], 21 µM; in assay [3], 7.41 µM; in assay [4], 9.22 µM; in assay [5], 16.9 µM; in assay [6] it was 42.8 µM. Also, in assay [1], the “Fold Selectivity (NCM-460/DLD1)” value was 2.4.
With `CC(C)COC(=O)N1CCC2(CC1)CSC1=C(O2)c2ccccc2C(=O)C1=O` [Compound 93, isobutyl 5,6-dioxo-5,6-dihydro-1′H-spiro[naphtho[1,2-b][1,4]oxathiine-2,4′-piperidine]-1′-carboxylate], the 50% inhibitory concentration (IC50) stood at 10.8 µM in assay [1]; 2.46 µM in assay [2]; 4.25 µM in assay [3]; 3.55 µM in assay [4]; 1.68 µM in assay [5]; 4.87 µM in assay [6]. Moreover, the “Fold Selectivity (NCM-460/DLD1)” value in assay [1] is recorded as 6.4.
For the compound `O=C(O)CSCC(=O)N1CCC2(CC1)CSC1=C(O2)c2ccccc2C(=O)C1=O` [Compound 234, {[2-(5,6-dioxo-5,6-dihydro-1′H-spiro[naphtho[1,2-b][1,4]oxathiine-2,4′-piperidine]-1′-yl)-2-oxoethyl]thio}acetic acid], the IC50 in assay [1] was greater than 100 µM; in assay [2] it was greater than 100 µM; in assay [3] it was greater than 100 µM; in assay [4], 55.6 µM; in assay [5] it was greater than 100 µM; in assay [6], greater than 100 µM.
For the compound `Cc1noc(C)c1C(=O)N1CCC2(CC1)CSC1=C(O2)c2ccccc2C(=O)C1=O` [Compound 40, 1′-[(3,5-dimethylisoxazol-4-yl)carbonyl]spiro[naphtho[1,2-b][1,4]oxathiine-2,4′-piperidine]-5,6-dione], the IC50 in assay [1] was found to be 10.2 µM; in assay [2], 3.92 µM; in assay [3], 14.4 µM; in assay [4], 8.39 µM; in assay [5] it was 4.09 µM; in assay [6], 15.5 µM. In addition, the “Fold Selectivity (NCM-460/DLD1)” value in assay [1] was determined as 2.5.
As to `CC(C)CCN1CCC2(CC1)CSC1=C(O2)c2ccccc2C(=O)C1=O` [Compound 132, 1′-(3-methylbutyl)spiro[naphtho[1,2-b][1,4]oxathiine-2,4′-piperidine]-5,6-dione], the IC50 worked out at 9.74 µM in assay [1]; 2.86 µM in assay [2]; 4.05 µM in assay [3]; 1.94 µM in assay [4]; 1.53 µM in assay [5]; 6.62 µM in assay [6]. For the same compound, the “Fold Selectivity (NCM-460/DLD1)” value in assay [1] came to 6.4.
On to `COc1ccc2c(c1)C1=C(SCC3(CCNCC3)O1)C(=O)C2=O` [Compound 20, 9-methoxyspiro[naphtho[1,2-b][1,4]oxathiine-2,4′-piperidine]-5,6-dione], for which the IC50 in assay [1] was 61.7 µM; in assay [2], 48 µM; in assay [3], 60.5 µM; in assay [4], 27.5 µM; in assay [5], 49.5 µM; in assay [6], greater than 100 µM. The “Fold Selectivity (NCM-460/DLD1)” value in assay [1] is on record as 1.2.
Consider `O=C1C(=O)c2ccccc2C2=C1SCC1(CCN(S(=O)(=O)c3ccc(Cl)c(Cl)c3)CC1)O2` [Compound 76, 1′-[(3,4-dichlorophenyl)sulfonyl]spiro[naphtho[1,2-b][1,4]oxathiine-2,4′-piperidine]-5,6-dione], for which the IC50 in assay [1] was 100 µM; in assay [2], greater than 33.3 µM; in assay [3], 28 µM; in assay [4], 14.3 µM; in assay [5] it was 27.1 µM; in assay [6], greater than 100 µM. For the same compound, in assay [1], the “Fold Selectivity (NCM-460/DLD1)” value came out at 3.7.
As to `O=C1C(=O)c2ccccc2C2=C1SCC1(CCN(C(=O)c3ccco3)CC1)O2` [Compound 39, 1′-(2-furoyl)spiro[naphtho[1,2-b][1,4]oxathiine-2,4′-piperidine]-5,6-dione], the IC50 in assay [1] was 6.35 µM; in assay [2], 1.87 µM; in assay [3], 3.86 µM; in assay [4], 1.52 µM; in assay [5], 1.45 µM; in assay [6] it was 7.69 µM. Also, the “Fold Selectivity (NCM-460/DLD1)” value in assay [1] came to 4.4.
As for `COc1ccc(OCC(O)CN2CCC3(CC2)CSC2=C(O3)c3ccccc3C(=O)C2=O)cc1` (centres unmarked) [Compound 175, 1′-[2-hydroxy-3-(4-methoxyphenoxy)propyl]spiro[naphtho[1,2-b][1,4]oxathiine-2,4′-piperidine]-5,6-dione], the IC50 in assay [1] was 6.12 µM; in assay [2] it was 3.27 µM; in assay [3], 1.59 µM; in assay [4], 1.39 µM; in assay [5] it was 1.42 µM; in assay [6], 7.29 µM. Also, in assay [1], the “Fold Selectivity (NCM-460/DLD1)” value turned out to be 4.3.
`O=C1C(=O)c2ccccc2C2=C1SCC1(CCN(CC3CCCCC3)CC1)O2` [Compound 136, 1′-(cyclohexylmethyl)spiro[naphtho[1,2-b][1,4]oxathiine-2,4′-piperidine]-5,6-dione]: the IC50 in assay [1] came out at 8.7 µM; in assay [2], 4.34 µM; in assay [3] it was 4.32 µM; in assay [4], 4.13 µM; in assay [5], 2.95 µM; in assay [6], 9.6 µM. For the same compound, the “Fold Selectivity (NCM-460/DLD1)” value in assay [1] is 2.9.
On to `COc1cccc(CN2CCC3(CC2)CSC2=C(O3)c3ccccc3C(=O)C2=O)c1` [Compound 121, 1′-(3-methoxybenzyl)spiro[naphtho[1,2-b][1,4]oxathiine-2,4′-piperidine]5,6-dione], for which the IC50 in assay [1] was found to be 11 µM; in assay [2], 4.03 µM; in assay [3], 5.48 µM; in assay [4] it was 3.71 µM; in assay [5] it was 3.98 µM; in assay [6], 9.42 µM. In addition, the “Fold Selectivity (NCM-460/DLD1)” value in assay [1] is 2.8.
As for `O=C1C(=O)c2ccccc2C2=C1SCC1(CCN(CCOc3ccc(Cl)cc3)CC1)O2` [Compound 145, 1′-[2-(4-chlorophenoxy)ethyl]spiro[naphtho[1,2-b][1,4]oxathiine-2,4′-piperidine]-5,6-dione], the IC50 in assay [1] turned out to be 21 µM; in assay [2], 7.87 µM; in assay [3], 4.03 µM; in assay [4], 2.74 µM; in assay [5], 3.8 µM; in assay [6] it was 5.55 µM. Besides, the “Fold Selectivity (NCM-460/DLD1)” value in assay [1] is reported as 5.5.
For the compound `O=C1C(=O)c2ccccc2C2=C1SCC1(CCN(C3C=CCCC3)CC1)O2` (centres unmarked) [Compound 135, 1′-cyclohex-2-en-1-ylspiro[naphtho[1,2-b][1,4]oxathiine-2,4′-piperidine]-5,6-dione], the IC50 was found to be 8.35 µM in assay [1]; 4.02 µM in assay [2]; 5.07 µM in assay [3]; 7.42 µM in assay [4]; 4.89 µM in assay [5]; 19.2 µM in assay [6]. Besides, the “Fold Selectivity (NCM-460/DLD1)” value in assay [1] was 1.7.
In the case of `O=C1C(=O)c2ccccc2C2=C1SCC1(CCN(Cc3ccccc3)CC1)O2` [Compound 130, 1′-benzylspiro[naphtho[1,2-b][1,4]oxathiine-2,4′-piperidine]-5,6-dione], the concentration for half-maximal inhibition (IC50) worked out at 10.2 µM in assay [1]; 3.84 µM in assay [2]; 4.58 µM in assay [3]; 2.74 µM in assay [4]; 1.57 µM in assay [5]; 7.4 µM in assay [6]. For the same compound, the “Fold Selectivity (NCM-460/DLD1)” value in assay [1] was determined as 6.5.
On to `O=C(O)CCC(=O)N1CCC2(CC1)CSC1=C(O2)c2ccccc2C(=O)C1=O` [Compound 233, 4-(5,6-dioxo-5,6-dihydro-1′H-spiro[naphtho[1,2-b][1,4]oxathiine-2,4′-piperidin]-1′-yl)-4-oxobutanoic acid], for which the IC50 is 48.8 µM in assay [1]; 62.8 µM in assay [2]; 40.4 µM in assay [3]; 56.3 µM in assay [4]; 64.3 µM in assay [5]; greater than 100 µM in assay [6]. Further, in assay [1], the “Fold Selectivity (NCM-460/DLD1)” value worked out at 0.8.

Values taken from patent US7902354B2, “Lapachone compounds and methods of use thereof” (ArQule, Inc., priority 2006, dated 2011).
